# From EP0423373A1, “STYRENE DERIVATIVE AND METHOD OF PRODUCTION THEREOF, POLYSTYRENE DERIVATIVE PRODUCED THEREFROM AND METHOD OF PRODUCING THE SAME, AND ULTRAVIOLET ABSORBENT AND COSMETICS CONTAINING SAID POLYSTYRENE DERIVATIVE AS ACTIVE INGREDIENT” (EARTH CHEMICAL CO., LTD., priority 1989, dated 1990)
# Tested on: not listed separately
# Assay: Ultraviolet absorption spectrum
# Format: physicochemical
# Details: ethanol solution, 10 ppm, quartz cell, optical path 10 mm
# Description: The wavelength at the maximum absorption (λ max) and the molar extinction coefficient (E) were found by measuring ultraviolet absorption spectrum of an ethanol solution of the sample having a concentration of 10 ppm in a quartz cell having an optical path of 10 mm by means of a spectrophotometer (UV-200S, made by SHIMADZU CORPORATION).
SMILES,Molar extinction coefficient (ε),Wavelength at the maximum absorption (λ max) [nm]
C=Cc1ccc(C(=O)CC(=O)c2ccc(C(=O)OC)cc2)cc1 [4-methyoxycarbonyl-4'-vinyldibenzoylmethane],"33,000",361
"C=Cc1ccc(CN(N=Cc2ccc(C(=O)O)cc2)C(=S)NC)cc1 [Example 1, p'-carboxybenzaidehyde 4-methyl-2-p-vinylbenzylthiosemicarbazone]","33,000",331
"C=Cc1ccc(CNC(=S)N(C)N=Cc2ccc(C(=O)O)cc2)cc1 [Example 2, p'-carboxybenzaldehyde 2-methyl-4-P-vinylbenzylthiosemicarbazone]","40,000",332
"C=Cc1ccc(CN(N=Cc2ccc(C=CC(=O)O)cc2)C(=S)NC)cc1 [Example 3, p'-carboxyvinylenebenzaldehyde 4-methyl-2-p-vinylbenzylthiosemicarbazone]","60,000",348
"C=Cc1ccc(CN(N=Cc2ccc(C(=O)O)cc2)C(N)=O)cc1 [Example 4, p'-carboxybenzaldehyde 2-p-vinylbenzylsemicarbazone]","29,000",306
"C=Cc1ccc(CN(N=Cc2ccc(C(=O)O)cc2)C(=O)NC)cc1 [Example 5, p'-carboxybenzaldehyde 4-methyl-2-p-vinylbenzylsemicarbazone]","29,000",310
"C=Cc1ccc(CN(N=Cc2ccccc2)C(=S)NC)cc1 [Example 6, benzaldehyde 4-methyl-2-p-vinylbenzylthiosemicarbazone]","33,000",317
"C=Cc1ccc(CN(N=Cc2ccc(C)cc2)C(=S)NC)cc1 [Example 7, p'-methylbenzaldehyde 4-methyl-2-p-vinylbenzylthiosemicarbazone]","33,000",317
"C=Cc1ccc(CN(N=Cc2ccc(N(C)C)cc2)C(=S)NC)cc1 [Example 8, p'-dimethylaminobenzaldehyde 4-methyl-2-p-vinylbenzylthiosemicarbazone]","38,000",358
"C=Cc1ccc(CN(N=Cc2ccc(Cl)cc2)C(=S)NC)cc1 [Example 9, p'-chlorobenzaldehyde 4-methyl-2-p-vinylbenzylthiosemicarbazone]","41,000",318

# Further lines, results first:
Molar extinction coefficient (ε),Wavelength at the maximum absorption (λ max) [nm],SMILES
"36,000",359,"C=Cc1ccc(CN(N=Cc2ccc([N+](=O)[O-])cc2)C(=S)NC)cc1 [Example 10, p'-nitrobenzaldehyde 4-methyl-2-p-vinylbenzylthiosemicarbazone]"
"34,000",321,"C=Cc1ccc(CN(N=Cc2ccco2)C(=S)NC)cc1 [Example 11, 2'-furylaldehyde 4-methyl-2-p-vinylbenzylthiosemicarbazone]"
"39,000",333,"C=Cc1ccc(CN(N=Cc2cccs2)C(=S)NC)cc1 [Example 12, 2'-thienylaldehyde 4-methyl-2-p-vinylbenzylthiosemicarbazone]"
"36,000",325,"C=Cc1ccc(CN(N=Cc2ccncc2)C(=S)NC)cc1 [Example 13, isonicotinic aldehyde 4-methyl-2-p-vinylbenzylthiosemicarbazone]"
"46,000",335,"C=Cc1ccc(CN(N=CC=Cc2ccccc2)C(=S)NC)cc1 [Example 14, cinnamaldehyde 4-methyl-2-p-vinylbenzylthiosemicarbazone]"
"34,000",361,"C=Cc1ccc(C(=O)CC(=O)c2ccc(C(=O)O)cc2)cc1 [Example 57, 4-carboxy-4'-vinyldibenzoylmethane]"

# Tested on: skin of a quinea pig
# Assay: Percutaneous absorption, diffusion cell (Franz)
# Format: in vitro ADME
# Details: 1 % aqueous solution of sodium salt, 33 C, 20 hours
# Method: The skin of a quinea pig was peeled, washed with physiological saline and then set in a percutaneous absopriton apparatus which was made in accordance with the description in Franz, T. J, J. Invest, Dermotal 64 , 190, 1975, by means of a diffusion cell. The sample room was filled with […] of a 1 % aqueous solution of sodium salt of the obtained polystyrene derivative, and the acceptor was filled with physiological saline. After maintaining at 33 C for 20 hours while stirring with a magnetic stirrier, the physiological saline in the acceptor was taken out, and the ultraviolet absorbency was measured. As the result, when the polystyrene derivative was used, the absorption curve of the ultraviolet absorption spectrum was similar to that obtained when the physiological saline was solely used as a negative control. When a compound having a lower molecular weight (1 % aqueous solution of sodium salt of p-aminobenzoic acid) was used as a positive control, the compound was observed by the ultraviolet absorption spectrum corresponding to 95 ppm in connection.
row,compound observed in the acceptor by the ultraviolet absorption spectrum [ppm],SMILES
1,95,Nc1ccc(C(=O)O)cc1 [p-aminobenzoic acid]
